Broadly, the IC50 is the concentration at which inhibition is half-maximal.

Assay [1] deals with T1, baculovirus-expressed ALK (Homo sapiens, UniProt Q9UM73).
T1 construct: host or cells: baculovirus expression system
Kind of assay: ALK Kinase Assay (ELISA-type, time-resolved fluorescence). Type of assay: biochemical. The settings on record: 1 μM ATP (Km level); read-out: ALK Activity (ALK Kinase Inhibition, IC50). The procedure, abridged:
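Wells were coated with phospholipase C-γ at 10 μg/mL in Tris-buffered saline. Adding 30 ng/ml enzyme started the reaction, which ran at 37° C for 15 minutes before Eu-N1 PT66 antibody detection. Percent inhibition versus log10 concentration gave IC50 by variable-slope fit.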

In assay [2] the target is T2, c-Met (cytoplasmic domain) (Homo sapiens, UniProt P08581).
T2 construct: 10 ng/mL c-Met (cytoplasmic domain, Invitrogen Corporation #PV3143); purchased Invitrogen Corporation PV3143
T2 sequence (P08581 956-1390 limits assumed): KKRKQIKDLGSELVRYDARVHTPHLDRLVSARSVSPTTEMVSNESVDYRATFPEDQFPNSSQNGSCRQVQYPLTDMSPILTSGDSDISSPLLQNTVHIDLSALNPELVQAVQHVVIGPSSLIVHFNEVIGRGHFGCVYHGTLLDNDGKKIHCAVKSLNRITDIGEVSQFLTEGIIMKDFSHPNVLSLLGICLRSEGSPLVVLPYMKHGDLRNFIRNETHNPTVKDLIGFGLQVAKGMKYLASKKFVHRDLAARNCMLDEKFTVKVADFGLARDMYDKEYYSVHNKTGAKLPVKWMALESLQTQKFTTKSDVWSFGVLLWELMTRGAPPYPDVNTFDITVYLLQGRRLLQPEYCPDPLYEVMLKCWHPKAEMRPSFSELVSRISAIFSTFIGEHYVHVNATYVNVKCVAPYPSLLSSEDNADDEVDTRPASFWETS
Put plainly: c-Met Kinase Assay (same methods as for ALK, with modifications). The settings on record: 1 μM ATP (Km level); read-out: cMet Activity (c-Met Kinase Inhibition, IC50). The class given is biochemical. The procedure, abridged: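 IC50 values were fitted by variable-slope sigmoidal regression of percent inhibition against log compound concentration. Phosphorylation was read with Eu-N1 PT66 antibody after a 15 min, 37 °C reaction. The reaction was initiated with 10 ng/mL c-Met cytoplasmic domain on wells coated with 10 μg/mL PLC-γ in TBS.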

Some results are limits rather than exact numbers.

T1 sequence (Q9UM73 19-1620): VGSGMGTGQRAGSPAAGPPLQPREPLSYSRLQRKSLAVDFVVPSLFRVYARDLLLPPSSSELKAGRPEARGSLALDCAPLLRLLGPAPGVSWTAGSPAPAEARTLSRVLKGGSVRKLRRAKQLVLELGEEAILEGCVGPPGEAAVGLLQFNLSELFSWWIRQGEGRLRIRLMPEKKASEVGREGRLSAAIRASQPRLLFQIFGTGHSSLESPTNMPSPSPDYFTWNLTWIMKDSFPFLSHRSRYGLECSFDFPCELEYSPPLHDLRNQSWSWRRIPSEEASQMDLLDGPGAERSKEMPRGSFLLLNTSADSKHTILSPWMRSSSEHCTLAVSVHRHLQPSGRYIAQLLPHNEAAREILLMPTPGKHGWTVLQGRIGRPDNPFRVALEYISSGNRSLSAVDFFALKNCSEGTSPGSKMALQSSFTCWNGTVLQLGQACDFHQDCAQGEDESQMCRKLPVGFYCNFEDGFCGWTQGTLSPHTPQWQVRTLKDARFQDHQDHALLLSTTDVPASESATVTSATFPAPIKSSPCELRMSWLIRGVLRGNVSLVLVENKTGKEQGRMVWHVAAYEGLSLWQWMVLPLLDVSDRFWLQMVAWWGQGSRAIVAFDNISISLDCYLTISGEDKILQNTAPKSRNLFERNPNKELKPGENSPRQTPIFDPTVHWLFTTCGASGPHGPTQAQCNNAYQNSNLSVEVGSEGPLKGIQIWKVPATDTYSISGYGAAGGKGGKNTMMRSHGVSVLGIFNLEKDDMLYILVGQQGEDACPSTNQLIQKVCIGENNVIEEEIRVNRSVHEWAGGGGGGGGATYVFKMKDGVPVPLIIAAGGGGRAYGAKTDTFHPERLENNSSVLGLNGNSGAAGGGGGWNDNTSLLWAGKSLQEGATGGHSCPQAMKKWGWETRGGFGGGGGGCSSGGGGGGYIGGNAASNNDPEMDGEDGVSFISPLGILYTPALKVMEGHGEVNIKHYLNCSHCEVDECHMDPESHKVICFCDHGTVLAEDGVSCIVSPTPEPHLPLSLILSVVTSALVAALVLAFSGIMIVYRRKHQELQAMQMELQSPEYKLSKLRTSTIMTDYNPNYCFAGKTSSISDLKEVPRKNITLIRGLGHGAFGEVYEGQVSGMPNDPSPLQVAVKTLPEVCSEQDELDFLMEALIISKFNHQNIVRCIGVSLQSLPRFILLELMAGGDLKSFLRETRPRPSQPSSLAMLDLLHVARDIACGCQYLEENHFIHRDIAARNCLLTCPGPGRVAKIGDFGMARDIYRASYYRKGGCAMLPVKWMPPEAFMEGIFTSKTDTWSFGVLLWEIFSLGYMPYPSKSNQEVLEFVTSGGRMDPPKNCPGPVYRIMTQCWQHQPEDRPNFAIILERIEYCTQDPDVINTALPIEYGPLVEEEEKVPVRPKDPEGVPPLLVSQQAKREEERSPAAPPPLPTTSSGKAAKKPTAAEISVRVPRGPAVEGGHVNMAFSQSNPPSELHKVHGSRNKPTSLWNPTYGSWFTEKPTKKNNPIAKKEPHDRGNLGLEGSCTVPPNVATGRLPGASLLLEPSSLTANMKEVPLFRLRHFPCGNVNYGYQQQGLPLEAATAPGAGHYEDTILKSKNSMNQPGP

As for `CNC(=O)c1ccccc1Nc1nc(Nc2ccc3c(c2)CCCC(=O)N3CCOC)ncc1C(F)(F)F` [Example 921, 2-{2-[1-(2-Methoxyethyl)-2-oxo-2,3,4,5-tetrahydro-1H-benzo[b]azepin-7-ylamino]-5-trifluoromethylpyrimidin-4-ylamino}-N-methylbenzamide], the IC50 in assay [1] and in assay [2] was less than 100 nM in each case.

With `CNC(=O)c1cccc(C)c1Nc1nc(Nc2ccc3c(c2)CCN(CCOC)CC3)ncc1C(F)(F)F` [Example 922, 2-{2-[3-(2-Methoxyethyl)-2,3,4,5-tetrahydro-1H-benzo[d]azepin-7-ylamino]-5-trifluoromethylpyrimidin-4-ylamino}-3,N-dimethylbenzamide], the results for the IC50 in assay [1] and in assay [2] were 100 to 1000 nM and less than 100 nM, respectively.

`CNC(=O)c1ccccc1Nc1nc(Nc2ccc3c(c2)CCC(N2CCOCC2)CC3)ncc1C(F)(F)F` (stereo not shown) [Example 923, N-Methyl-2-[2-(7-morpholin-4-yl-6,7,8,9-tetrahydro-5H-benzocyclohepten-2-ylamino)-5-trifluoromethyl-pyrimidin-4-ylamino]-benzamide]: the IC50 in assay [1] and in assay [2] was less than 100 nM throughout.

Regarding `CCN1CCc2ccc(Nc3ncc(C(F)(F)F)c(Nc4ccc(N5CCOCC5)cc4OC)n3)cc2CC1` [Example 924, N(2)-(3-Ethyl-2,3,4,5-tetrahydro-1H-benzo[d]azepin-7-yl)-N(4)-(2-methoxy-4-morpholin-4-yl-phenyl)-5-trifluoromethylpyrimidine-2,4-diamine], the IC50 was less than 100 nM in assay [1] and 100 to 1000 nM in assay [2].

Consider `CNC(=O)c1cccc(F)c1Nc1nc(Nc2ccc3c(c2)N(CCOC)C(=O)CCC3)ncc1C(F)(F)F` [Example 926, 3-Fluoro-2-{2-[1-(2-methoxy-ethyl)-2-oxo-2,3,4,5-tetrahydro-1H-benzo[b]azepin-8-ylamino]-5-trifluoromethyl-pyrimidin-4-ylamino}-N-methyl-benzamide], for which the IC50 in assay [1] and in assay [2] was less than 100 nM each time.

Consider `CCN1CCc2ccc(Nc3ncc(Cl)c(Nc4cccc(OCC#N)c4)n3)cc2CC1` [Example 927, {3-[5-Chloro-2-(3-ethyl-2,3,4,5-tetrahydro-1H-benzo[d]azepin-7-ylamino)-pyrimidin-4-ylamino]-phenoxy}-acetonitrile], for which the figures for the half-inhibitory concentration (IC50) in assay [1] and in assay [2] were less than 100 nM and 100 to 1000 nM, respectively.

Regarding `CCN1CCc2ccc(Nc3ncc(Cl)c(Nc4ccccc4OCC#N)n3)cc2CC1` [Example 928, {2-[5-Chloro-2-(3-ethyl-2,3,4,5-tetrahydro-1H-benzo[d]azepin-7-ylamino)-pyrimidin-4-ylamino]-phenoxy}-acetonitrile], the IC50 in assay [1] and in assay [2] was less than 100 nM throughout.

As for `CCCNC(=O)c1ccc(Nc2nc(Nc3ccc4c(c3)CCC(N3CCOCC3)CC4)ncc2Cl)c(OC)c1` (stereo not shown) [Example 929, 4-[5-Chloro-2-(7-morpholin-4-yl-6,7,8,9-tetrahydro-5H-benzocyclohepten-2-ylamino)-pyrimidin-4-ylamino]-3-methoxy-N-propyl-benzamide], the figures for the IC50 in assay [1] and in assay [2] were less than 100 nM and more than 10000 nM, respectively.

Regarding `CC1(C)CCC(=O)Nc2cc(Nc3ncc(Cl)c(Nc4c(F)cccc4OCC#N)n3)ccc21` [Example 930, {2-[5-Chloro-2-(5,5-dimethyl-2-oxo-2,3,4,5-tetrahydro-1H-1-benzazepin-8-ylamino)-pyrimidin-4-ylamino]-3-fluoro-phenoxy}-acetonitrile], the IC50 in assay [1] and in assay [2] was less than 100 nM in each case.

`COCCN1CCc2ccc(Nc3ncc(Cl)c(Nc4c(F)cccc4OCC#N)n3)cc2CC1` [Example 931, (2-{5-Chloro-2-[3-(2-methoxy-ethyl)-2,3,4,5-tetrahydro-1H-3-benzazepin-7-ylamino]-pyrimidin-4-ylamino}-3-fluoro-phenoxy)-acetonitrile]: the half-inhibitory concentration (IC50) in assay [1] and in assay [2] was less than 100 nM throughout.

In the case of `COc1cc2c(cc1Nc1ncc(C(F)(F)F)c(Nc3ccccc3S(=O)(=O)C(C)C)n1)CCN(CC(=O)N(C)C)CC2` [Example 932, 2-(7-Methoxy-8-{4-[2-(propane-2-sulfonyl)-phenylamino]-5-trifluoromethyl-pyrimidin-2-ylamino}-1,2,4,5-tetrahydro-3-benzazepin-3-yl)-N,N-dimethyl-acetamide], the 50% inhibitory concentration (IC50) in assay [1] was 1000 to 10000 nM; in assay [2], more than 10000 nM.

`COc1cc2c(cc1Nc1ncc(C(F)(F)F)c(N[C@H]3[C@@H](C(N)=O)[C@@H]4C=C[C@H]3C4)n1)CCN(CC(=O)N(C)C)CC2` [Example 933, (1S,2S,3R,4R)-3-[2-(3-Dimethylcarbamoylmethyl-8-methoxy-2,3,4,5-tetrahydro-1H-3-benzazepin-7-ylamino)-5-trifluoromethyl-pyrimidin-4-ylamino]-bicyclo[2.2.1]hept-5-ene-2-carboxylic acid amide]: the IC50 was less than 100 nM in assay [1] and 1000 to 10000 nM in assay [2].

On to `COCCN1CCc2ccc(Nc3ncc(C(F)(F)F)c(N[C@H]4[C@@H](C(N)=O)[C@@H]5C=C[C@H]4C5)n3)cc2CC1` [Example 934, (1S,2S,3R,4R)-3-{2-[3-(2-Methoxy-ethyl)-2,3,4,5-tetrahydro-1H-3-benzazepin-7-ylamino]-5-trifluoromethyl-pyrimidin-4-ylamino}-bicyclo[2.2.1]hept-5-ene-2-carboxylic acid amide], for which the IC50 in assay [1] and in assay [2] was less than 100 nM throughout.

For `NC(=O)[C@@H]1[C@H](Nc2nc(Nc3ccc4c(c3)CCC(N3CCOCC3)CC4)ncc2C(F)(F)F)[C@H]2C=C[C@@H]1C2` (stereo partly drawn) [Example 935, (1S,2S,3R,4R)-3-[2-(7-Morpholin-4-yl-6,7,8,9-tetrahydro-5H-benzocyclohepten-2-ylamino)-5-trifluoromethyl-pyrimidin-4-ylamino]-bicyclo[2.2.1]hept-5-ene-2-carboxylic acid amide], the 50% inhibitory concentration (IC50) in assay [1] and in assay [2] was less than 100 nM in each case.

`COCCN1CCc2ccc(Nc3ncc(Cl)c(Nc4ccc(OC)c5c4C(=O)N(C)C5)n3)cc2CC1` [Example 936, 7-{5-Chloro-2-[3-(2-methoxy-ethyl)-2,3,4,5-tetrahydro-1H-3-benzazepin-7-ylamino]-pyrimidin-4-ylamino}-4-methoxy-2-methyl-2,3-dihydro-isoindol-1-one]: the half-maximal inhibitory concentration (IC50) in assay [1] is less than 100 nM; in assay [2], 100 to 1000 nM.

`COc1cc2c(cc1Nc1ncc(Cl)c(Nc3ccc(OC)c4c3C(=O)N(C)C4)n1)CCN(CC(=O)N(C)C)CC2` [Example 937, 2-{7-[5-Chloro-4-(7-methoxy-2-methyl-3-oxo-2,3-dihydro-1H-isoindol-4-ylamino)-pyrimidin-2-ylamino]-8-methoxy-1,2,4,5-tetrahydro-3-benzazepin-3-yl}-N,N-dimethyl-acetamide]: the IC50 in assay [1] was less than 100 nM; in assay [2] it was more than 10000 nM.

For the molecule `COc1ccc(Nc2nc(Nc3ccc4c(c3)CCC(O)CC4)ncc2Cl)c2c1CN(C)C2=O` (stereo not shown) [Example 938, 7-[5-Chloro-2-(7-hydroxy-6,7,8,9-tetrahydro-5H-benzocyclohepten-2-ylamino)-pyrimidin-4-ylamino]-4-methoxy-2-methyl-2,3-dihydro-isoindol-1-one], the IC50 was 100 to 1000 nM in assay [1] and 1000 to 10000 nM in assay [2].

Take `COc1ccc(Nc2nc(Nc3ccc4c(c3)CCC(N3CCOCC3)CC4)ncc2Cl)c2c1CN(C)C2=O` (stereo not shown) [Example 939, 7-[5-Chloro-2-(7-morpholin-4-yl-6,7,8,9-tetrahydro-5H-benzocyclohepten-2-ylamino)-pyrimidin-4-ylamino]-4-methoxy-2-methyl-2,3-dihydro-isoindol-1-one]: the 50% inhibitory concentration (IC50) was less than 100 nM in assay [1] and 1000 to 10000 nM in assay [2].

Consider `COc1c(Nc2ncc(Cl)c(Nc3ccccc3S(=O)(=O)N(C)C)n2)ccc2c1CCCC(N1CCOCC1)C2` (stereo not shown) [Example 944, 2-[5-Chloro-2-(1-methoxy-6-morpholin-4-yl-6,7,8,9-tetrahydro-5H-benzocyclohepten-2-ylamino)-pyrimidin-4-ylamino]-N,N-dimethyl-benzenesulfonamide], for which the IC50 in assay [1] was less than 100 nM; in assay [2], more than 10000 nM.

On to `COc1ccc(Nc2ncc(Cl)c(Nc3ccccc3S(=O)(=O)N(C)C)n2)c2c1CCCC(N1CCOCC1)C2` (stereo not shown) [Example 945, 2-[5-Chloro-2-(4-methoxy-8-morpholin-4-yl-6,7,8,9-tetrahydro-5H-benzocyclohepten-1-ylamino)-pyrimidin-4-ylamino]-N,N-dimethyl-benzenesulfonamide], for which the IC50 in assay [1] was 1000 to 10000 nM; in assay [2], more than 10000 nM.

Regarding `COc1ccc(Nc2ncc(Cl)c(Nc3ccccc3S(=O)(=O)C(C)C)n2)c2c1CCCC(N1CCOCC1)C2` (stereo not shown) [Example 946, 5-Chloro-N(2)-(4-methoxy-8-morpholin-4-yl-6,7,8,9-tetrahydro-5H-benzocyclohepten-1-yl)-N(4)-[2-(propane-2-sulfonyl)-phenyl]-pyrimidine-2,4-diamine], the IC50 in assay [1] is 100 to 1000 nM; in assay [2] it was more than 10000 nM.

Regarding `COc1c(Nc2ncc(Cl)c(Nc3ccccc3S(=O)(=O)C(C)C)n2)ccc2c1CCCC(N1CCOCC1)C2` (stereo not shown) [Example 947, 5-Chloro-N(2)-(1-methoxy-6-morpholin-4-yl-6,7,8,9-tetrahydro-5H-benzocyclohepten-2-yl)-N(4)-[2-(propane-2-sulfonyl)-phenyl]-pyrimidine-2,4-diamine], the concentration for half-maximal inhibition (IC50) in assay [1] is less than 100 nM; in assay [2], more than 10000 nM.

As for `COc1c(Nc2ncc(Cl)c(Nc3ccccc3C(=O)OC(C)C)n2)ccc2c1CCCC(N1CCOCC1)C2` (stereo not shown) [Example 948, 2-[5-Chloro-2-(1-methoxy-6-morpholin-4-yl-6,7,8,9-tetrahydro-5H-benzocyclohepten-2-ylamino)-pyrimidin-4-ylamino]-benzoic acid isopropyl ester], the IC50 in assay [1] is 100 to 1000 nM; in assay [2], more than 10000 nM.

Values taken from patent publication US8148391B2 (Cephalon, Inc., priority 2006, dated 2012).
